Source: patent US7572831B2, “Composition containing chalcone” (Angiolab, Inc., priority 2002, dated 2009)

Assays:
MMP-1 = molecular target: T1, MMP-1 (Homo sapiens, UniProt P03956); assay: MMP-1 spectrofluorometric enzyme activity assay; format: biochemical; conditions: 50 μM compound; read-out: MMP-1 activity inhibited
T1 construct: made in house; host or cells: Sf21 insect cells, baculovirus (pBlueBac4.5)
T1 sequence (P03956 100-469): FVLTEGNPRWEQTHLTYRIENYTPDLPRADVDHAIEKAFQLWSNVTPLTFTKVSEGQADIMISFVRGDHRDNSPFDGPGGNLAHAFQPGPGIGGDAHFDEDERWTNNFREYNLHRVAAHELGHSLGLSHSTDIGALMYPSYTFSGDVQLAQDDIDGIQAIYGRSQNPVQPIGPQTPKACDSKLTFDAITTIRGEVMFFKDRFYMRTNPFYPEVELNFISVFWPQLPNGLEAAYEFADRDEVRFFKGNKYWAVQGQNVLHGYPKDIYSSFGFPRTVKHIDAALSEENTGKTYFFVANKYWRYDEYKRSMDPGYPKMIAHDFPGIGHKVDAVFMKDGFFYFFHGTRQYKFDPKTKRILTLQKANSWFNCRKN
Procedure: MMP-1, MMP-2, MMP-9 and MMP-13 were cloned and prepared from insect cells (Sf21 insect cell) by using a Baculovirus system.
Each cDNA for corresponding MMPs was cloned to a pBlueBac4.5 transfer vector (Invitrogen, Cat no. V1995-20), and then transfected to Sf21 cells with a Bac-N-Blue Transfection Kit (Invitrogen, Cat no. K855-01). Sf21 cells were incubated with a TNM-FH (Sigma, St. Louis, Mo., U.S.A) media containing 10% fetal bovine serum at 27° C., then harvested and re-suspended at a concentration of 10^7 cell/Ml. The cell suspension was incubated with a virus containing the cloned gene for 1 hr at room temperature. Infected Sf21 cells were grown for 72 hrs and the medium was recovered, and the MMP was purified. MMP-2 (GENEBANK No. XM—048244) and MMP-9 (GENEBANK No. XM—009491) were recovered from a gelatin-sepharose affinity column (Sigma, G5384) by eluting with 5% DMSO-containing buffer. […]
As a control, 2 Ml of reaction buffer (50 mM Tricine, pH 7.5, 10 mM CaCl2, 200 mM NaCl) comprising DMSO, 10 nM of enzyme and 10 μM of substrate was prepared in a cuvette. Fluorescence intensity was measured for 5-10 min at room temperature with a spectrofluorometer.
50 μM Chalcone or its derivatives were added to a reaction buffer containing a substrate and enzyme, and fluorescence intensity was measured in the same manner.

[1] = tested on: human umbilical vein endothelial cells (HUVECs); assay: Tube formation of HUVEC on Matrigel; format: cell-based; conditions: 50 μM, 8-16 hrs
Description: The effect of chalcone or its derivatives on human endothelial cells was investigated to evaluate the biological effect of chalcones as MMP inhibitors. Since MMPs are responsible for the degradation of extracellular matrix, chalcone or its derivatives can inhibit the formation of tubular network of vessel, which represent migration and differentiation of endothelial cell. Blood vessel endothelial cells, human umbilical vein endothelial cells (HUVECs), were isolated from freshly obtained cords after cesarean section according to Grants' method (Grants D. S., et al., Cell, 58, pp933-943, 1989). They were identified by immunocytochemical staining with anti-Factor VIII antibody. HUVECs cultured on Matrigel (BD Bioscience, Bedford, Mass., USA) were treated with 50 μM of chalcone or its derivatives, and further incubated at 37° C. for 8-16 hrs. As a control, the procedure was repeated with the solvent of the above compounds.

rat aortic rings = assay: Rat aortic ring angiogenesis assay; format: cell-based, Sprague Dawley rats; conditions: day 10; for Microvessel density: control 19.5±1.8
Description: The effect of chalcone or its derivatives on angiogenesis was studied by culturing aortic explants in three-dimensional matrix gels according to the procedure of Kruger and Figg (Clinical Cancer Research 7:1867-1872, 2001). Thoracic aortas were excised from 8-week-old male Sprague Dawley rats and the fibroadipose tissue was removed. The aortas were sectioned into 1-mm-long cross-sections, rinsed with Human Endothelial-SFM (GIBCO), placed on the Matrigel-coated wells, covered with additional 50 ul Matrigel, and allowed to gel for more than 30 min at 37° C., 5% CO2. All the rings were cultured in Human Endothelial-SFM (GIBCO) supplemented with 200 ug/ml of ECGS (Endothelial Cell Growth Supplement, Sigma) as an angiogenesis inducer. Chalcone diluted with ethanol was added to the culture medium at final concentrations of 1 uM and 100 uM. 1% of ethanol only was added to the culture medium as a vehicle control. All assays were performed by using 5 aortic rings per sample. Aortic rings were photographed on day 10. The area of angiogenic sprouting was calculated using Image-Pro Plus software program (Media Cybernetics). Microvessel densities are reported in percent area.

TPA-induced ear edema = TPA-induced ear edema model; format: in vivo, ICR mouse; conditions: FIG. 7

inhibition at 50 µM (MMP-1): ~75%
SMILES: O=C(/C=C/c1ccccc1)c1ccccc1 [Chalcone]
Tubular (microvascular) network formation of HUVEC [1]: microvascular network was disconnected
Microvessel density (rat aortic rings; 1 uM): 18.5±1.2 percent area
Microvessel density (rat aortic rings; 100 uM): 1.7±0.1 percent area
inhibition at 1 µM (rat aortic rings; Rattus norvegicus, 240 h, 1 uM, read-out: Inhibition of microvessel formation compared to control): 5.1%
inhibition at 100 µM (rat aortic rings; Rattus norvegicus, 240 h, 100 uM, read-out: Inhibition of microvessel formation compared to control): 91.3%
Dose dependence of anti-inflammatory activity (TPA-induced ear edema): dose dependent
